For series [1] the following is noted: Table 2, formula (II); method [a]: pH 2.7, 0.1% formic acid in water / acetonitrile gradient.
Protocol: Measurement of log P values was performed according EEC directive 79/831 Annex V.A8 by HPLC (High Performance Liquid Chromatography) on reversed phase columns with the following methods: ^[a]
For series [2], the system named is Botrytis cinerea. Nature of the series: In vivo preventive test on Botrytis cinerea (grey mould). As to conditions: 500 ppm; gherkin plants sprayed 24 hours before contamination; grading 4-5 days after contamination vs control plants. The procedure, abridged: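 Gherkin plants ("Vert petit de Paris") sprayed with compound at Z11 cotyledon stage, then inoculated 24 h later with B. cinerea spores (50 000/ml) in PDB/fructose/NH4NO3/KH2PO4 nutrient solution. Incubated at 17 °C, 80% RH; % efficacy versus solvent-treated controls graded 4–5 days after contamination.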

Series [3] has as its system Septoria tritici. Nature of the series: In vivo preventive test on Septoria tritici (leaf spot on wheat). As to conditions: 500 ppm; wheat plants sprayed 24 hours before contamination; grading 21 to 28 days after contamination vs control plants. The procedure, abridged:
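Scipion wheat at 1-leaf stage sprayed with compound, controls receiving acetone/tween/DMSO/water vehicle; 24 h later leaves inoculated with Septoria tritici spores (500 000 spores per ml). Efficacy (%) graded versus control plants 21 to 28 days after contamination.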

Series [4] concerns Sphaerotheca fuliginea. Nature of the series: In vivo preventive test on Sphaerotheca fuliginea (powdery mildew on cucurbits). As to conditions: 500 ppm; gherkin plants sprayed 24 hours before contamination; grading 12 days after contamination vs control plants. The procedure:
Gherkin plants (“Vert petit de Paris” variety), sown in starter cups on a 50/50 peat soil-pozzolana substrate and grown at 24° C., are treated at the Z11 cotyledon stage by spraying with the active ingredient prepared as described above. Plants, used as controls, are treated with the mixture of acetone/tween/DMSO/water not containing the active material. After 24 hours, the plants are contaminated by spraying the cotyledons with an aqueous suspension of Sphaerotheca fuliginea spores (100 000 spores per ml). The spores are collected from infected plants. […] Grading (% of efficacy) is carried out 12 days after the contamination, in comparison with the control plants.

Series [5] is classed as physicochemical.
Setting [6] is: HPLC on reversed phase columns, method [a]: pH 2.7, 0.1% formic acid in water / acetonitrile, linear gradient 10% to 95% acetonitrile.
The mark [7] stands for this setting: HPLC on reversed phase columns, method [a]: pH 2.7, 0.1% formic acid in water and acetonitrile, linear gradient 10% to 95% acetonitrile.

Where “and” joins values, the source holds several entries; their conditions need not be identical. Identical values can stand only once. Like-named read-outs stand apart in the source and are kept apart here.

Usually Log P stands for a log measure of how a compound divides between an organic and an aqueous phase. A high value points to higher lipophilicity. Take `COC(=O)C1(C)ON=C(c2ccc3ncc(Br)cc3c2)C1C` (mixture of isomers) [II-15]: the “Log P” value in series [1] was 2.94[a].
Still for that read-out and setting: to `COC(=O)C1(C(C)O)CC(c2ccc3ncc(Br)cc3c2)=NO1` (mixture of isomers) [II-19] belongs 2.18[a]; to `CC(O)C1(C(=O)O)CC(c2ccc3ncc(Br)cc3c2)=NO1` (mixture of isomers) [II-77], 1.60 and 1.65; to `CC1(C(=O)O)CC(c2cc3cc(Br)cnc3c(F)c2F)=NO1` (racemic) [II-02], 2.25[a].
Same read-out and setting: to `CC1(C(=O)O)CC(c2ccc3ncc(Br)cc3c2)=NO1` (racemic) [II-03] belongs 1.94[a]; to `COC1(C(=O)O)CC(c2ccc3ncc(Br)cc3c2)=NO1` (racemic) [II-04], 1.73[a]; to `COc1c(C2=NOC(C)(C(=O)O)C2)cc2cccnc2c1F` (racemic) [II-05], 1.39[a].
On the same count and under the same terms, to `O=C(O)C1(CCl)CC(c2ccc3ncc(Br)cc3c2)=NO1` (racemic) [II-06] belongs 2.11[a].
As to `CC1(C(=O)O)CC(c2cc3cc(Br)cnc3cc2F)=NO1` (racemic) [II-07], the “Log P” value in series [1] was 2.14[a].
Consider `O=C(O)C1(C(F)(F)F)CC(c2ccc3ncc(Br)cc3c2)=NO1` (racemic) [II-08], for which the “Log P” value in series [1] was 1.85[a].
As for `COC1(C(=O)NC2CC2)CC(c2ccc3ncc(Br)cc3c2)=NO1` (centres unmarked) [compound 508], the figures for the “% of efficacy (protection)” value in series [2], in series [3] and in series [4] were 100%, 94% and 98%, respectively. For the same compound, the “log P” value in series [5] (method [a]: HPLC/LC-MS on reversed phase at pH 2.7, 0.1% formic acid in water / acetonitrile, gradient 10% to 95% acetonitrile) was 2.35[a].
On to `C#Cc1cnc2ccc(C3=NOC(OC)(C(=O)NC(C)CC(=O)OC)C3)cc2c1` (centres unmarked) [compound 512], for which the “% of efficacy (protection)” value was found to be 98% in series [2], 97% in series [3] and 97% in series [4]. Further, the “log P” value in series [5] (setting [6]) was 2.28[a].
Take `C#Cc1cnc2ccc(C3=NOC(C)(C(=O)NC(CC)COC)C3)cc2c1` (centres unmarked) [compound 524]: the “% of efficacy (protection)” value in series [2] turned out to be 100%; in series [3] it was 93%; in series [4], 93%. Moreover, the “log P” value in series [5] (setting [6]) was 2.58[a].
`C#Cc1cnc2ccc(C3=NOC(C)(C(=O)NCC)C3)cc2c1` (centres unmarked) [compound 527]: the “% of efficacy (protection)” value in series [2] is given as 100%; in series [3] it was 97%; in series [4], 94%. Further, the “log P” value in series [5] (setting [6]) is 2.12[a].
The corresponding values for `C#Cc1cnc2ccc(C3=NOC(C)(C(=O)NC)C3)cc2c1` (centres unmarked) [compound 531] are 100%, 100%, 98% and 1.84[a].
As to `CNC(=O)C1(C)CC(c2ccc3ncc(Br)cc3c2)=NO1` (centres unmarked) [compound 532], the results for the “% of efficacy (protection)” value in series [2], in series [3] and in series [4] were 100%, 100% and 89%, respectively. The “log P” value in series [5] (setting [6]) was 2.07[a].
On to `CCCn1cc(CNC(=O)C2(C)CC(c3cc(C)c4ncc(Br)cc4c3)=NO2)c(C)n1` (centres unmarked) [compound 534], for which the “% of efficacy (protection)” value in series [2] is given as 100%; in series [3], 92%; in series [4] it was 100%. Besides, the “log P” value in series [5] (setting [6]) was 3.29[a].
`C#Cc1cnc2c(C)cc(C3=NOC(C)(C(=O)NCc4cnc(C)cn4)C3)cc2c1` (centres unmarked) [compound 535]: the “% of efficacy (protection)” value in series [2], in series [3] and in series [4] was 100% in each case. The “log P” value in series [5] (setting [6]) is 2.50[a].
For `Cc1cc(C2=NOC(C)(C(=O)NCC3COC(C)(C)O3)C2)cc2cc(Br)cnc12` (centres unmarked) [compound 538], the “% of efficacy (protection)” value in series [2], in series [3] and in series [4] was 100% throughout. Besides, the “log P” value in series [5] (setting [6]) is 3.39[a].
For `CC1(C)OCC(CNC(=O)C2(C)CC(c3cc(Cl)c4ncc(Br)cc4c3)=NO2)O1` (centres unmarked) [compound 540], the “% of efficacy (protection)” value came to 100% in series [2], 92% in series [3] and 94% in series [4]. In addition, in series [5] (setting [6]), the “log P” value is 3.17[a].
Take `CC(C)NC(=O)C1(C)CC(c2cc(Cl)c3ncc(Br)cc3c2)=NO1` (centres unmarked) [compound 541]: the figures for the “% of efficacy (protection)” value in series [2], in series [3] and in series [4] were 100%, 100% and 98%, respectively. The “log P” value in series [5] (setting [6]) was 3.29[a].
For `C#Cc1cnc2c(Cl)cc(C3=NOC(C)(C(=O)NC(C)C)C3)cc2c1` (centres unmarked) [compound 543], the “% of efficacy (protection)” value in series [2], in series [3] and in series [4] was 100% throughout. In series [5] (setting [6]), the “log P” value is 2.96[a].
Turning to `C#Cc1cnc2c(Cl)cc(C3=NOC(C)(C(=O)NC4CCC4)C3)cc2c1` (centres unmarked) [compound 544], the “% of efficacy (protection)” value was 100% in series [2], 100% in series [3] and 98% in series [4]. For the same compound, in series [5] (setting [6]), the “log P” value was 3.15[a].
For `C#Cc1cnc2c(Cl)cc(C3=NOC(C)(C(=O)NCc4cnc(C)cn4)C3)cc2c1` (centres unmarked) [compound 558], the entries for the “% of efficacy (protection)” value in series [2], in series [3] and in series [4] were 97%, 100% and 85%, respectively. Further, the “log P” value in series [5] (setting [6]) was 2.39[a].
In the case of `C#Cc1cnc2c(Cl)cc(C3=NOC(C)(C(=O)NCC4COC(C)(C)O4)C3)cc2c1` (centres unmarked) [compound 559], the results for the “% of efficacy (protection)” value in series [2], in series [3] and in series [4] were 95%, 100% and 85%, respectively. Moreover, the “log P” value in series [5] (setting [6]) was 2.84[a].
The corresponding values for `COC1(C(=O)NCC2COC(C)(C)O2)CC(c2cc(Cl)c3ncc(Br)cc3c2)=NO1` (centres unmarked) [compound 568] are 99%, 100%, 94% and 3.11[a].
On to `COC1(C(=O)NC(C)C)CC(c2cc(Cl)c3ncc(Br)cc3c2)=NO1` (centres unmarked) [compound 569], for which the “% of efficacy (protection)” value in series [2], in series [3] and in series [4] was 100% each time. For the same compound, the “log P” value in series [5] (setting [6]) was 3.15[a].
Regarding `CCCn1cc(CNC(=O)C2(OC)CC(c3cc(C)c4ncc(Br)cc4c3)=NO2)c(C)n1` (centres unmarked) [compound 595], the “% of efficacy (protection)” value in series [2], in series [3] and in series [4] was 100% throughout. In addition, the “log P” value in series [5] (setting [6]) was 3.27[a].
For the compound `COC1(C(=O)NCc2cnc(C)cn2)CC(c2cc(C)c3ncc(Br)cc3c2)=NO1` (centres unmarked) [compound 596], the “% of efficacy (protection)” value was 99% in series [2], 100% in series [3] and 83% in series [4]. Moreover, the “log P” value in series [5] (setting [6]) is 2.78[a].
As to `C#Cc1cnc2ccc(C3=NOC(C(=O)NCc4cn(CC)nc4C)(C(F)F)C3)cc2c1` (centres unmarked) [compound 613], the “% of efficacy (protection)” value in series [2] stood at 100%; in series [3] it was 79%; in series [4], 100%. The “log P” value in series [5] (setting [6]) is 2.39[a].
Consider `C#Cc1cnc2ccc(C3=NOC(C(=O)NCC4COC(C)(C)O4)(C(F)F)C3)cc2c1` (centres unmarked) [compound 614], for which the “% of efficacy (protection)” value in series [2] is on record as 100%; in series [3], 97%; in series [4], 92%. The “log P” value in series [5] (setting [6]) was 2.64[a].
Taken in the same sequence, the figures for `CCn1cc(CNC(=O)C2(C(F)F)CC(c3ccc4ncc(Br)cc4c3)=NO2)c(C)n1` (centres unmarked) [compound 621] were 83%, 97%, 97% and 2.64[a].
Regarding `C#Cc1cnc2ccc(C3=NOC(C=C)(C(=O)NC(C)C)C3)cc2c1` (centres unmarked) [compound 727], the “% of efficacy (protection)” value in series [2] is recorded as 98%; in series [3], 100%; in series [4], 98%. In series [5] (setting [7]), the “log P” value was 2.73[a].
For the compound `C=CC1(C(=O)NCC2COC(C)(C)O2)CC(c2ccc3ncc(I)cc3c2)=NO1` (centres unmarked) [compound 729], the “% of efficacy (protection)” value in series [2] is 97%; in series [3] it was 100%; in series [4], 100%. Also, the “log P” value in series [5] (setting [7]) was 3.11[a].
`C=CC1(C(=O)NC(C)C)CC(c2ccc3ncc(Br)cc3c2)=NO1` (centres unmarked) [compound 734]: the “% of efficacy (protection)” value in series [2] is on record as 95%; in series [3], 100%; in series [4], 98%. Further, the “log P” value in series [5] (setting [7]) was 3.08[a].

Values taken from patent publication US9510598B2, “Nitrogen-containing heterocyclic compounds for plant disease control” (BAYER CROPSCIENCE AG, priority 2012, dated 2016).
